biological target: Human factor D (Homo sapiens (Human), UniProt P00746); test: Human Factor D Assay; assay type: biochemical; details: human factor D 80 nM, substrate Z-L-Lys-SBzl, DTNB
Description: Human factor D (purified from human serum, Complement Technology, Inc.) at 80 nM final concentration is incubated with test compound at various concentrations for 5 minutes at room temperature in 50 mM Tris, 1M NaCl, pH 7.5. A synthetic substrate Z-L-Lys-SBzl and DTNB (Ellman's reagent) are added to final concentrations of 100 μM each. The increase in color is recorded at OD405 nm in a microplate in kinetic mode over 30 minutes with 30 second time points in a spectrofluorimeter. IC50 values are calculated by non-linear regression from the percentage of inhibition of complement factor D activity as a function of test compound concentration.

Human factor D, sequence (P00746 26-253): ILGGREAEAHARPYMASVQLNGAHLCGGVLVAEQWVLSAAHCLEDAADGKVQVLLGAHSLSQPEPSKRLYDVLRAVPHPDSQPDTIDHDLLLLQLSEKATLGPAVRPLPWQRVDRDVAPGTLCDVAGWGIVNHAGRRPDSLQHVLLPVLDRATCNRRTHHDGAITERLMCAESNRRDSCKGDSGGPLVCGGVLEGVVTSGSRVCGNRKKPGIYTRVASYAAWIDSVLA

Question: For `NCc1ccc(NC(=O)[C@@H]2C[C@@H](F)CN2C(=O)Cn2nc(C(N)=O)c3cc(-c4ccnnc4)ccc32)cc1` [Compound 70, 1-(2-((2S,4R)-2-(4-(aminomethyl)phenylcarbamoyl)-4-fluoropyrrolidin-1-yl)-2-oxoethyl)-5-(pyridazin-4-yl)-1H-indazole-3-carboxamide], which IC50 is on record?
Answer: The IC50 was greater than 10 µM.

Question: How did the IC50 turn out when `Cc1ccnn1-c1ccccc1NC(=O)[C@@H]1C[C@@H](F)CN1C(=O)Cn1nc(C(N)=O)c2cc(-c3ccnnc3)ccc21` [Compound 71, 1-(2-((2S,4R)-4-fluoro-2-(2-(5-methyl-1H-pyrazol-1-yl)phenylcarbamoyl)pyrrolidin-1-yl)-2-oxoethyl)-5-(pyridazin-4-yl)-1H-indazole-3-carboxamide] was run?
Answer: Its IC50 is greater than 10 µM.

Question: How did the IC50 turn out when `CC(=O)c1cn(CC(=O)N2C[C@H](F)C[C@H]2C(=O)Nc2ccccc2-n2nccc2C)c2ccc(-c3ccnnc3)cc12` [Compound 72, (2S,4R)-1-(2-(3-acetyl-5-(pyridazin-4-yl)-1H-indol-1-yl)acetyl)-4-fluoro-N-(2-(5-methyl-1H-pyrazol-1-yl)phenyl)pyrrolidine-2-carboxamide] was run?
Answer: Its IC50 is greater than 10 µM.

Question: `NC(=O)c1nn(CC(=O)N2C[C@H](F)C[C@H]2C(=O)Nc2cccc(OCc3ccccc3)n2)c2ccc(-c3ccnnc3)cc12` [Compound 73, 1-(2-((2S,4R)-2-(6-(benzyloxy)pyridin-2-ylcarbamoyl)-4-fluoropyrrolidin-1-yl)-2-oxoethyl)-5-(pyridazin-4-yl)-1H-indazole-3-carboxamide] was tested. Which IC50 did it give?
Answer: The IC50 was greater than 10 µM.

Question: `CC(=O)c1cn(CC(=O)N2C[C@H](F)C[C@H]2C(=O)N[C@H]2CCCC[C@@H]2OCc2ccccc2)c2ccc(-c3ccnnc3)cc12` [Compound 74, (2S,4R)-1-(2-(3-acetyl-5-(pyridazin-4-yl)-1H-indol-1-yl)acetyl)-N-((1S,2S)-2-(benzyloxy)cyclohexyl)-4-fluoropyrrolidine-2-carboxamide] was tested. Which IC50 did it give?
Answer: The IC50 was greater than 10 µM.

Question: For `CC(=O)c1cn(CC(=O)N2C[C@H](F)C[C@H]2C(=O)Nc2ccc3c(c2)OC(C)(C)C3)c2ccc(-c3ccnnc3)cc12` [Compound 75, (2S,4R)-1-(2-(3-acetyl-5-(pyridazin-4-yl)-1H-indol-1-yl)acetyl)-N-(2,2-dimethyl-2,3-dihydrobenzofuran-6-yl)-4-fluoropyrrolidine-2-carboxamide], which IC50 is on record?
Answer: Its IC50 is less than 1 µM.

Question: `CC1(C)Cc2ccc(NC(=O)[C@@H]3C[C@@H](F)CN3C(=O)Cn3nc(C(N)=O)c4cc(-c5ccnnc5)ccc43)cc2O1` [Compound 76, 1-(2-((2S,4R)-2-(2,2-dimethyl-2,3-dihydrobenzofuran-6-ylcarbamoyl)-4-fluoropyrrolidin-1-yl)-2-oxoethyl)-5-(pyridazin-4-yl)-1H-indazole-3-carboxamide] was tested. Which IC50 did it give?
Answer: Its IC50 is less than 1 µM.

Question: With `CC(=O)c1cn(CC(=O)N2C[C@H](F)C[C@H]2C(=O)N[C@H]2CCC[C@@H]2OCc2ccccc2)c2ccc(-c3ccnnc3)cc12` [Compound 77, (2S,4R)-1-(2-(3-acetyl-5-(pyridazin-4-yl)-1H-indol-1-yl)acetyl)-N-((1S,2S)-2-(benzyloxy)cyclopentyl)-4-fluoropyrrolidine-2-carboxamide] as the compound, how does the IC50 read?
Answer: Its IC50 is greater than 10 µM.

Question: With `NC(=O)c1nn(CC(=O)N2C[C@H](F)C[C@H]2C(=O)N[C@H]2CCCC[C@@H]2OCc2ccccc2)c2ccc(-c3ccnnc3)cc12` [Compound 78] as the compound, how does the IC50 read?
Answer: The IC50 was greater than 10 µM.

Question: Which IC50 does the source give for `CNC(=O)[C@@H]1C[C@@H](F)CN1C(=O)Cn1nc(C(N)=O)c2cc(-c3ccnnc3)ccc21` [Compound 79, 1-(2-((2S,4R)-4-fluoro-2-(methylcarbamoyl)pyrrolidin-1-yl)-2-oxoethyl)-5-(pyridazin-4-yl)-1H-indazole-3-carboxamide] here?
Answer: Its IC50 is greater than 10 µM.

Question: Which IC50 does the source give for `COc1ncc(-c2ccc3c(c2)c(C(C)=O)cn3CC(=O)N2[C@@H]3C[C@@H]3C[C@H]2C(=O)Nc2cccc(-c3ccccc3Cl)c2F)cn1` [Compound 80, (1R,3S,5R)-2-(2-(3-acetyl-5-(2-methoxypyrimidin-5-yl)-1H-indol-1-yl)acetyl)-N-(2′-chloro-2-fluorobiphenyl-3-yl)-2-azabicyclo[3.1.0] hexane-3-carboxamide] here?
Answer: Its IC50 is less than 1 µM.

Question: For `COc1ncc(-c2ccc3c(c2)c(C(C)=O)cn3CC(=O)N2[C@@H]3C[C@@H]3C[C@H]2C(=O)Nc2cccc(Br)n2)cn1` [Compound 81, (1R,3S,5R)-2-(2-(3-acetyl-5-(2-methoxypyrimidin-5-yl)-1H-indol-1-yl)acetyl)-N-(6-bromopyridin-2-yl)-2-azabicyclo[3.1.0] hexane-3-carboxamide], which IC50 is on record?
Answer: The IC50 was less than 1 µM.

Question: With `CC(=O)c1cn(CC(=O)N2C[C@H](F)C[C@H]2C(=O)Nc2cccc(Br)n2)c2ccc(-c3cnc(C#N)nc3)cc12` [Compound 82, (2S,4R)-1-(2-(3-acetyl-5-(2-cyanopyrimidin-5-yl)-1H-indol-1-yl)acetyl)-N-(6-bromopyridin-2-yl)-4-fluoropyrrolidine-2-carboxamide] as the compound, how does the IC50 read?
Answer: The IC50 was less than 1 µM.

Question: How did the IC50 turn out when `CC(=O)c1cn(CC(=O)N2C[C@H](F)C[C@H]2C(=O)Nc2cccc(Br)n2)c2ccc(-c3cnc(F)nc3)cc12` [Compound 83, (2S,4R)-1-(2-(3-acetyl-5-(2-fluoropyrimidin-5-yl)-1H-indol-1-yl)acetyl)-N-(6-bromopyridin-2-yl)-4-fluoropyrrolidine-2-carboxamide] was run?
Answer: The IC50 was less than 1 µM.

Question: `CC(=O)c1cn(CC(=O)N2C[C@H](F)C[C@H]2C(=O)Nc2cccc(Br)n2)c2ccc(-c3cnc(C)nc3)cc12` [Compound 84, (2S,4R)-1-(2-(3-acetyl-5-(2-methylpyrimidin-5-yl)-1H-indol-1-yl)acetyl)-N-(6-bromopyridin-2-yl)-4-fluoropyrrolidine-2-carboxamide] was tested. Which IC50 did it give?
Answer: The IC50 was less than 1 µM.

Question: `CC(=O)c1cn(CC(=O)N2C[C@H](F)C[C@H]2C(=O)Nc2ccc(CN)cc2)c2ccc(-c3ccnnc3)cc12` [Compound 85, (2S,4R)-1-(2-(3-acetyl-5-(pyridazin-4-yl)-1H-indol-1-yl)acetyl)-N-(4-(aminomethyl)phenyl)-4-fluoropyrrolidine-2-carboxamide] was tested. Which IC50 did it give?
Answer: Its IC50 is greater than 10 µM.

Question: `NC(=O)c1nn(CC(=O)N2C[C@H](F)C[C@H]2C(=O)Nc2ccc3cn[nH]c3c2)c2ccc(-c3ccnnc3)cc12` [Compound 86, 1-(2-((2S,4R)-2-(1H-indazol-6-ylcarbamoyl)-4-fluoropyrrolidin-1-yl)-2-oxoethyl)-5-(pyridazin-4-yl)-1H-indazole-3-carboxamide] was tested. Which IC50 did it give?
Answer: Its IC50 is greater than 10 µM.

Question: How did the IC50 turn out when `CC(=O)c1cn(CC(=O)N2C[C@H](F)C[C@H]2C(=O)Nc2cncc(Cl)n2)c2ccc(-c3ccnnc3)cc12` [Compound 88, (2S,4R)-1-(2-(3-acetyl-5-(pyridazin-4-yl)-1H-indol-1-yl)acetyl)-N-(6-chloropyrazin-2-yl)-4-fluoropyrrolidine-2-carboxamide] was run?
Answer: The IC50 was less than 1 µM.

Question: `NC(=O)c1nn(CC(=O)N2C[C@H](F)C[C@H]2C(=O)Nc2cncc(Cl)n2)c2ccc(-c3ccnnc3)cc12` [Compound 89, 1-(2-((2S,4R)-2-(6-chloropyrazin-2-ylcarbamoyl)-4-fluoropyrrolidin-1-yl)-2-oxoethyl)-5-(pyridazin-4-yl)-1H-indazole-3-carboxamide] was tested. Which IC50 did it give?
Answer: Its IC50 is less than 1 µM.

Question: With `NC(=O)c1nn(CC(=O)N2C[C@H](F)C[C@H]2C(=O)Nc2ccc(F)c(-c3nnc4n3CCCCC4)c2)c2ccc(-c3ccnnc3)cc12` [Compound 91, 1-(2-((2S,4R)-4-fluoro-2-(4-fluoro-3-(6,7,8,9-tetrahydro-5H-[1,2,4]triazolo[4,3-a]azepin-3-yl)phenylcarbamoyl)pyrrolidin-1-yl)-2-oxoethyl)-5-(pyridazin-4-yl)-1H-indazole-3-carboxamide] as the compound, how does the IC50 read?
Answer: Its IC50 is greater than 10 µM.

Question: With `NC(=O)c1nn(CC(=O)N2C[C@H](F)C[C@H]2C(=O)Nc2cccc(Cl)c2C(F)(F)F)c2ccc(-c3ccnnc3)cc12` [Compound 93, 1-(2-((2S,4R)-2-(3-chloro-2-(trifluoromethyl)phenylcarbamoyl)-4-fluoropyrrolidin-1-yl)-2-oxoethyl)-5-(pyridazin-4-yl)-1H-indazole-3-carboxamide] as the compound, how does the IC50 read?
Answer: Its IC50 is greater than 10 µM.

Question: With `NC(=O)c1nn(CC(=O)N2C[C@H](F)C[C@H]2C(=O)Nc2c[nH]nc2-c2ccc(Cl)cc2Cl)c2ccc(-c3ccnnc3)cc12` [Compound 94, 1-(2-((2S,4R)-2-(3-(2,4-dichlorophenyl)-1H-pyrazol-4-ylcarbamoyl)-4-fluoropyrrolidin-1-yl)-2-oxoethyl)-5-(pyridazin-4-yl)-1H-indazole-3-carboxamide] as the compound, how does the IC50 read?
Answer: Its IC50 is greater than 10 µM.

Question: Which IC50 does the source give for `CC(=O)c1cn(CC(=O)N2C[C@H](F)C[C@H]2C(=O)Nc2cccc(Cl)c2-n2cncn2)c2ccc(-c3ccnnc3)cc12` [Compound 95, (2S,4R)-1-(2-(3-acetyl-5-(pyridazin-4-yl)-1H-indol-1-yl)acetyl)-N-(3-chloro-2-(1H-1,2,4-triazol-1-yl)phenyl)-4-fluoropyrrolidine-2-carboxamide] here?
Answer: The IC50 was greater than 10 µM.

Question: Which IC50 does the source give for `NC(=O)c1nn(CC(=O)N2C[C@H](F)C[C@H]2C(=O)Nc2cccc(Cl)c2-n2cncn2)c2ccc(-c3ccnnc3)cc12` [Compound 96, 1-(2-((2S,4R)-2-(3-chloro-2-(1H-1,2,4-triazol-1-yl)phenylcarbamoyl)-4-fluoropyrrolidin-1-yl)-2-oxoethyl)-5-(pyridazin-4-yl)-1H-indazole-3-carboxamide] here?
Answer: Its IC50 is greater than 10 µM.

Question: How did the IC50 turn out when `CC(=O)c1cn(CC(=O)N2C[C@H](F)C[C@H]2C(=O)Nc2cc(C)nc3nc(C(F)(F)F)nn23)c2ccc(-c3ccnnc3)cc12` [Compound 97, (2S,4R)-1-(2-(3-acetyl-5-(pyridazin-4-yl)-1H-indol-1-yl)acetyl)-4-fluoro-N-(5-methyl-2-(trifluoromethyl)-[1,2,4]triazolo[1,5-a]pyrimidin-7-yl)pyrrolidine-2-carboxamide] was run?
Answer: The IC50 was greater than 10 µM.

Question: `Cn1cnnc1-c1ccccc1NC(=O)[C@@H]1C[C@@H](F)CN1C(=O)Cn1nc(C(N)=O)c2cc(-c3ccnnc3)ccc21` [Compound 98, 1-(2-((2S,4R)-4-fluoro-2-(2-(4-methyl-4H-1,2,4-triazol-3-yl)phenylcarbamoyl)pyrrolidin-1-yl)-2-oxoethyl)-5-(pyridazin-4-yl)-1H-indazole-3-carboxamide] was tested. Which IC50 did it give?
Answer: The IC50 was greater than 10 µM.
